Test results taken from ChEMBL document CHEMBL1140393, “Neamine dimers targeting the HIV-1 TAR RNA” (Bioorg Med Chem Lett, 2005).

Tests used:
Design in all cases: species or system Homo sapiens
[1] = Effect towards transactivation responsive RNA-binding protein at pH 7.5, (10 mM Tris-HCl, 150 mM KCl)by using fluorimetric competition assay
[2] = Effect against transactivation responsive RNA-binding protein at pH 7.4 (50 mM Tris-HCl […]) in fluorimetric competition assay
[3] = Effect against trans-activation responsive RNA-binding protein at pH 7.4 (50 mM Tris-HCl and 20 mM KCl) in fluorimetric competition assay

SMILES	IC50 [1] [nM]	IC50 [2] [nM]	IC50 [3] [nM]
NC[C@@H]1O[C@H](O[C@H]2[C@@H](O)[C@H](O[C@@H]3[C@@H](O)[C@H](N)C[C@H](N)[C@H]3O[C@H]3O[C@H](CN)[C@@H](O)[C@H](O)[C@H]3N)O[C@@H]2CO)[C@H](N)[C@@H](O)[C@@H]1O [FRAMYCETIN]	35000	7000	
NC[C@H]1O[C@H](O[C@H]2[C@H](O)[C@@H](O)[C@H](N)C[C@@H]2N)[C@H](N)[C@@H](O)[C@@H]1O [NEAMINE]	40000		10000
NCC1OC(OC2C(N)CC(N)C(O)C2O)C(N)C(O)C1OCCCCCCNC(=O)CCC(=O)NCCCCCCOC1C(CN)OC(OC2C(N)CC(N)C(O)C2O)C(N)C1O (configuration not stated)	480	150	

Continued by falling IC50 [1], values first:

IC50 [1] [nM]	IC50 [2] [nM]	SMILES	IC50 [3] [nM]
1000	150	CN(CC(=O)NCCCCCCO[C@@H]1[C@H](O)[C@H](N)C[C@@H](N)[C@H]1O[C@H]1O[C@@H](CN)[C@@H](O)[C@H](O)[C@@H]1N)CC(=O)NCCCCCCO[C@@H]1[C@H](O)[C@H](N)C[C@@H](N)[C@H]1O[C@H]1O[C@@H](CN)[C@@H](O)[C@H](O)[C@@H]1N	
900	400	NCC1OC(OC2C(N)CC(N)C(O)C2OCCCCCCNC(=O)CCC(=O)NCCCCCCOC2C(O)C(N)CC(N)C2OC2OC(CN)C(O)C(O)C2N)C(N)C(O)C1O (configuration not stated)	
50	330	CN(CC(=O)NCCCCCCO[C@H]1[C@H](O)[C@H](N)[C@@H](O[C@H]2[C@H](O)[C@H](O)[C@H](N)C[C@H]2N)O[C@H]1CN)CC(=O)NCCCCCCO[C@H]1[C@H](O)[C@H](N)[C@@H](O[C@H]2[C@H](O)[C@H](O)[C@H](N)C[C@H]2N)O[C@H]1CN	
